Measurements: US20250340556A1, “PYRIMIDOPYRIMIDONE COMPOUNDS AND METHODS OF USE THEREOF” (Soltego, Inc., priority 2022, published 2025)
Like-named read-outs stand apart in the source and are kept apart here.

What was measured:
[1] = ester bond
B16 4A5 cells = assay: B16 4A5 cell viability, MTS assay; assay type: cell-based, mouse; details: 72 h
Procedure: B16 4A5 cells were seeded in 24-well plates at 20,000 cells/well, 24 h before the beginning of the treatment with test compounds at 5 concentrations, in triplicates (n=3). […] Additionally, DMSO at 0.1%, used for solubilization of the test compounds, was tested in parallel. The treatments were performed in culture medium containing only 1% of FBS. […] The effects of the compounds on B16 4A5 viability was assessed. To this purpose, cells were incubated during 72 h with 5 concentrations of the compounds, were left untreated, treated with SDS or with DMSO 0.1%.

SIK (h) / SIK1 = SIK (h) / SIK1 (Homo sapiens (Human), UniProt P57059); assay: SIK1 kinase activity, Eurofins KinaseProfiler ([γ-33P]-ATP filter assay); assay type: biochemical
Procedure: (§1) SIK1, 2 and 3 kinase activity was assessed using a Eurofins Cerep S.A. (‘Eurofins’) KinaseProfiler. All compounds were prepared to 50× final assay concentration in 100% DMSO. This working stock of the compound was added to the assay well as the first component in the reaction, followed by the remaining components as detailed in the general assay protocols below. In the standard KinaseProfiler service, there is no pre-incubation step between the compound and the kinase prior to initiation of the reaction. The positive control well contains all components of the reaction, except the compound of interest; however, DMSO (at a final concentration of 2%) is included in these wells to control for solvent effects. The blank wells contain all components of the reaction, with a reference inhibitor replacing the compound of interest. This abolishes kinase activity and establishes the base-line (0% kinase activity remaining).
(§2) SIK (h) was incubated with 8 mM MOPS pH 7.0, 0.2 mM EDTA, 100 μM […], 10 mM Magnesium acetate and [γ-33P]-ATP (specific activity and concentration as required). The reaction was initiated by the addition of the Mg/ATP mix. After incubation for 40 minutes at room temperature, the reaction was stopped by the addition of phosphoric acid to a concentration of 0.5%, 10 μL of the reaction was then spotted onto a P30 filtermat and washed four times for 4 minutes in 0.425% phosphoric acid and once in methanol prior to drying and scintillation counting.

SIK2 (h) = SIK2 (h) (Homo sapiens (Human), UniProt Q9H0K1); assay: SIK2 kinase activity, Eurofins KinaseProfiler ([γ-33P]-ATP filter assay); assay type: biochemical
Procedure: as §1
as §2, with “SIK2” for “SIK”, “[γ-33P-ATP](specific” for “[γ-33P]-ATP (specific”

SIK3 (h) = SIK3 (h) (Homo sapiens (Human), UniProt Q9Y2K2); assay: SIK3 kinase activity, Eurofins KinaseProfiler ([γ-33P]-ATP filter assay); assay type: biochemical
Procedure: as §1
as §2, with “SIK3 (h) was” for “SIK (h) was”, “acetate and [γ-33P-ATP](specific activity and” for “acetate and [γ-33P]-ATP (specific activity and”, “the reaction is stopped by” for “the reaction was stopped by”, “0.5%, […] of the” for “0.5%, 10 μL of the”

[2] = tested on: living human skin explants; assay: Cell viability of living human skin explants, Masson's trichrome staining (Example 8); assay type: cell-based; details: 1% topical in vehicle E
Procedure: All the tested products were diluted in the vehicle noted as E (Ethanol 65%, Propylene glycol 25%, Transcutol 10%). The diluted solutions were stored at 4° C. within the study period. 36 human skin explants of an average diameter of 11 mm (+1 mm) were prepared on an abdoplasty coming from a person (reference: P2462-AB53) with a III phototype. The explants were kept in survival in BEM culture medium (BIO-EC's Explants Medium) at 37° C. in a humid, 5%-CO2 atmosphere. Study is performed on human skin tissue, obtained from surgical residues in full respect with the Declaration of Helsinki and the article L. 1243-4 of the French Public Health Code.
The excipient E and the tested products were applied topically at a rate of 2 μL per 1 cm^2 explant (˜2 mg/cm^2) and spread and gently rubbed for 10 seconds using a small spatula on day 0 (DO), D3, D5, D7 and D10. […] The culture medium was half renewed (1 ml per well) on D3, D5, D7 and D10. On D0, D3, D4, D5, D6, D7 and D10, the culture media of the irradiated explants (UV) were replaced by HBSS (Hank's Balanced Saline Solution; 1 ml per explant). Then, the explants of the “UV” batch were irradiated using a UV simulator Vibert Lourmat RMX 3W with a dose of 2.25 J/cm^2 of UVA (with 6-8% of UVB) corresponding to 0.5 MED (minimal erythemal dose) on a skin with a III phototype. At the end of the UV irradiation, the explants form the batch TUV were put back in 2 mL of BEM medium. On D0, the 3 explants from the batch TO were collected and cut in two parts. Half was fixed in buffered formalin solution and half was frozen at −80° C. On D10, 3 explants from the concerned batches were collected and treated in the same way than in DO. According to the dispositions mentioned in the study plan, the days of treatments, irradiations and sampling were adjusted to the schedule of working days. After fixation for 24 hours in buffered formalin, the samples were dehydrated and impregnated in paraffin using a Leica PEARL dehydration automat. The samples were embedded using a Leica EG 1160 embedding station. 5-μm-thick sections were made using a Leica RM 2125 Minot-type microtome, and the sections were mounted on Superfrost® histological glass slides. The frozen samples were cut into 7-μm-thick sections using a Leica CM 3050 cryostat. Sections were then mounted on Superfrost®, plus silanized glass slides. The microscopical observations were realized using a Leica DMLB or Olympus BX43 microscope. Pictures were digitized with a numeric DP72 Olympus camera with CellSens storing software.
The cell viability of the epidermal and dermal structures was assessed by microscopical observation of formalin-fixed paraffin-embedded (FFPE) skin sections after Masson's trichrome staining, Goldner variant.

SIK1 = SIK1 (Homo sapiens (Human), UniProt P57059); assay: cell-based
[3] = Table 5, macrocycle precursors, read-out: IC50 nM SIK2
[4] = Table 6, macrocycles, read-out: IC50 nM SIK2

Chain of SIK1 (P57059 whole entry): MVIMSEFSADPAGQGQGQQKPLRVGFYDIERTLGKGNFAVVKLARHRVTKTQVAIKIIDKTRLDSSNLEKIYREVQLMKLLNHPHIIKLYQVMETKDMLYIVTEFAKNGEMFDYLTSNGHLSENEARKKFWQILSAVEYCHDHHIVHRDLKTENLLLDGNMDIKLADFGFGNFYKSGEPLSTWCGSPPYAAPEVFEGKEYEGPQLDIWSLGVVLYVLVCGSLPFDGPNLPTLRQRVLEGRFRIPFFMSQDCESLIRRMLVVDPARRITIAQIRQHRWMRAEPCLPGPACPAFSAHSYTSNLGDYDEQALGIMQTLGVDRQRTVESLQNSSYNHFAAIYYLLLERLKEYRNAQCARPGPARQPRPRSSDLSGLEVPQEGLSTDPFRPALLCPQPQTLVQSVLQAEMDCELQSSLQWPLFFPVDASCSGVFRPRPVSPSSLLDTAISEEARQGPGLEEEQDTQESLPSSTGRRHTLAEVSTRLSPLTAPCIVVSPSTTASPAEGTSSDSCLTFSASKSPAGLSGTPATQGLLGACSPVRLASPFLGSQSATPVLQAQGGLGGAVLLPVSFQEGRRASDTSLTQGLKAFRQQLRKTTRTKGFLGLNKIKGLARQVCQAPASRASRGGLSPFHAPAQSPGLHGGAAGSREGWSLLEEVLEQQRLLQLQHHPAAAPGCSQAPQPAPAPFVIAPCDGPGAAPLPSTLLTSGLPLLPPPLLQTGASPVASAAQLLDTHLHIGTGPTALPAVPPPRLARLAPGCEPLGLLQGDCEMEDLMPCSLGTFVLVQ

COc1cc(F)c2cc1Nc1ncc3c(n1)N(CCCC(=O)OC2)C(=O)N(c1c(C)cccc1C)C3
ring closure, isolated yield ([1]; from COc1cc(F)c(CO)cc1Nc1ncc2c(n1)N(CCCC(=O)O)C(=O)N(c1c(C)cccc1C)C2, 14-membered ring, DCC/DMAP/3A MS, DCM/DMF, 6.89 mM, 25.0 °C, 16.0 h): 57%

COc1cc(N2CCN(C)CC2)c2cc1Nc1ncc3c(n1)N(CCCC(=O)OC2)C(=O)N(c1c(C)cccc1C)C3
ring closure, isolated yield ([1]; from COc1cc(N2CCN(C)CC2)c(CO)cc1Nc1ncc2c(n1)N(CCCC(=O)O)C(=O)N(c1c(C)cccc1C)C2, 14-membered ring, DCC/DMAP/3A MS, DCM/DMF, 6.69 mM, 25.0 °C, 16.0 h): 6%

CCCCCCCCCCCCOS(=O)(=O)[O-].[Na+] [SDS, reference compound]
viability of cells (B16 4A5 cells; SDS 0.05%, compared to untreated cells): strongly and significantly diminished

COC(=O)CCCN1C(=O)N(c2c(C)cccc2C)Cc2cnc(Nc3ccc(N4CCN(C)CC4)c(CO)c3)nc21 [SLT-019]
IC50 (SIK (h) / SIK1; Table 5, macrocycle precursors): 2 nM
IC50 (SIK2 (h); [3]): 3 nM
IC50 (SIK3 (h); Table 5, macrocycle precursors): 8 nM

Cc1cccc(C)c1N1Cc2cnc(Nc3ccc(N4CCN(C)CC4)c(CO)c3)nc2N(CCC(=O)O)C1=O [SLT-020]
IC50 (SIK (h) / SIK1; Table 5, macrocycle precursors): 5 nM
IC50 (SIK2 (h); [3]): 10 nM
IC50 (SIK3 (h); Table 5, macrocycle precursors): 43 nM

Cc1cccc(C)c1N1Cc2cnc3nc2N(CCC(=O)OCc2cc(ccc2N2CCN(C)CC2)N3)C1=O [SLT-023]
ring closure, isolated yield ([1]; from Cc1cccc(C)c1N1Cc2cnc(Nc3ccc(N4CCN(C)CC4)c(CO)c3)nc2N(CCC(=O)O)C1=O, 13-membered ring, EDC.HCl/HOBt/DMAP/3A MS, DCM, 8.04 mM, 25.0 °C, 16.0 h): 33%
IC50 (SIK (h) / SIK1; Table 6, macrocycles): 3 nM
IC50 (SIK2 (h); [4]): 3 nM
IC50 (SIK3 (h); Table 6, macrocycles): 18 nM
cell viability (B16 4A5 cells; 0.7 μg/mL, compared with DMSO 0.1% control): slightly decreased
viability of cells (B16 4A5 cells; 5 μg/mL, compared with DMSO 0.1% control): slightly diminished
cell viability of epidermal and dermal structures [2]: very slightly decreased
EC50 (SIK1): 86.6 nM

Cc1cccc(C)c1N1Cc2cnc(Nc3ccc(N4CCN(C)CC4)c(CO)c3)nc2N(CCCC(=O)O)C1=O [SLT-025]
IC50 (SIK (h) / SIK1; Table 5, macrocycle precursors): 3 nM
IC50 (SIK2 (h); [3]): 6 nM
IC50 (SIK3 (h); Table 5, macrocycle precursors): 21 nM

Cc1cccc(C)c1N1Cc2cnc(Nc3ccc(N4CCN(C)CC4)c(CO)c3)nc2N(CCCCC(=O)O)C1=O [SLT-027]
IC50 (SIK (h) / SIK1; Table 5, macrocycle precursors): 2 nM
IC50 (SIK2 (h); [3]): 5 nM
IC50 (SIK3 (h); Table 5, macrocycle precursors): 21 nM
EC50 (SIK1): 408 nM

Cc1cccc(C)c1N1Cc2cnc3nc2N(CCCCC(=O)OCc2cc(ccc2N2CCN(C)CC2)N3)C1=O [SLT-033]
ring closure, isolated yield ([1]; from Cc1cccc(C)c1N1Cc2cnc(Nc3ccc(N4CCN(C)CC4)c(CO)c3)nc2N(CCCCC(=O)O)C1=O, 15-membered ring, DCC/DMAP/3A MS, DCM/DMF, 7.69 mM, 25.0 °C): 14%
IC50 (SIK2 (h); [4]): 0.8 nM
EC50 (SIK1): 6.08 nM

Cc1cccc(C)c1N1Cc2cnc3nc2N(CCCCCOC(=O)c2cc(ccc2N2CCN(C)CC2)N3)C1=O [SLT-038]
ring closure, isolated yield ([1]; from Cc1cccc(C)c1N1Cc2cnc(Nc3ccc(N4CCN(C)CC4)c(C(=O)O)c3)nc2N(CCCCCO)C1=O, 15-membered ring, 2,4,6-trichlorobenzoyl chloride/TEA, DMAP, toluene/DMF, 5.0 mM, 110.0 °C, 16.0 h): 6%
IC50 (SIK2 (h); [4]): 1 nM
EC50 (SIK1): 4.37 nM

Cc1cccc(C)c1N1Cc2cnc3nc2N(CCCOC(=O)c2cc(ccc2N2CCN(C)CC2)N3)C1=O [SLT-041]
ring closure, isolated yield ([1]; from Cc1cccc(C)c1N1Cc2cnc(Nc3ccc(N4CCN(C)CC4)c(C(=O)O)c3)nc2N(CCCO)C1=O, 13-membered ring, EDC.HCl/HOBt/DMAP/3A MS, DCM, 7.99 mM, 50.0 °C, 16.0 h): 30%
EC50 (SIK1): 10.5 nM

COc1cc(Br)c2cc1Nc1ncc3c(n1)N(CCCC(=O)OC2)C(=O)N(c1c(C)cccc1C)C3 [SLT-058]
ring closure, isolated yield ([1]; from COc1cc(Br)c(CO)cc1Nc1ncc2c(n1)N(CCCC(=O)O)C(=O)N(c1c(C)cccc1C)C2, 14-membered ring, DCC/DMAP/3A MS, DCM/DMF, 4.96 mM, 25.0 °C, 16.0 h): 20%
IC50 (SIK (h) / SIK1; Table 6, macrocycles): 26 nM
IC50 (SIK2 (h); [4]): 201 nM
IC50 (SIK3 (h); Table 6, macrocycles): 339 nM

Cc1cccc(C)c1N1Cc2cnc3nc2N(CCCCOC(=O)Cc2cc(ccc2N2CCN(C)CC2)N3)C1=O [SLT-059]
ring closure, isolated yield ([1]; from Cc1cccc(C)c1N1Cc2cnc(Nc3ccc(N4CCN(C)CC4)c(CC(=O)O)c3)nc2N(CCCCO)C1=O, 15-membered ring, 2,4,6-trichlorobenzoyl chloride/TEA, DMAP, toluene/DMF, 5.0 mM, 110.0 °C, 16.0 h): 13%
IC50 (SIK (h) / SIK1; Table 6, macrocycles): 286 nM
IC50 (SIK2 (h)): > 500 nM
IC50 (SIK2 (h); [4]): 250 nM

Cc1cccc(C)c1N1Cc2cnc3nc2N(C/C=C/CC(=O)OCc2cc(ccc2N2CCN(C)CC2)N3)C1=O [SLT-061]
IC50 (SIK2 (h); [4]): 2 nM

Cc1cccc(C)c1N1Cc2cnc3nc2N(C/C=C\CC(=O)OCc2cc(ccc2N2CCN(C)CC2)N3)C1=O [SLT-062]
IC50 (SIK2 (h)): 0.8 nM

Cc1cccc(C)c1N1Cc2cnc3nc2N(C/C=C/COC(=O)Cc2cc(ccc2N2CCN(C)CC2)N3)C1=O [SLT-068]
IC50 (SIK2 (h); [4]): 17 nM

Cc1cccc(C)c1N1Cc2cnc3nc2N(CCCCOC(=O)C(C)c2cc(ccc2N2CCN(C)CC2)N3)C1=O (centres unmarked) [SLT-070]
IC50 (SIK2 (h); [4]): 2 nM

Cc1cccc(C)c1N1Cc2cnc3nc2N(CCCOC(=O)C(C)c2cc(ccc2N2CCN(C)CC2)N3)C1=O (centres unmarked) [SLT-071]
IC50 (SIK2 (h); [4]): 3 nM

Cc1cccc(C)c1N1Cc2cnc3nc2N(C/C=C\C(=O)OCc2cc(ccc2N2CCN(C)CC2)N3)C1=O [SLT-073]
IC50 (SIK2 (h)): 0.7 nM

Cc1cccc(C)c1N1Cc2cnc3nc2N(C/C=C/CCOC(=O)c2cc(ccc2N2CCN(C)CC2)N3)C1=O [SLT-079]
IC50 (SIK2 (h); [4]): 1 nM
